SMILES strings stand for the structures. Where only a bound is given, the exact number is not on record here.

This assay deals with HPK1 (Homo sapiens (Human), UniProt Q92918). Briefly: HPK1 Inhibition Assay (ADP-Glo kinase assay). The class given is biochemical. As to conditions: ATP 10 μM. The method, boiled down: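 ADP-Glo luminescence read-out after 1 h room-temperature kinase reaction with 10 μM ATP and 0.1 μg/ml MBP. Recombinant human HPK1 at 7.5 ng/μl; buffer 40 mM Tris pH 7.5, 20 mM MgCl2. Compounds serially diluted 5-fold over 10 points from 10 mM DMSO stock.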
Chain of HPK1 (Q92918 1-346 limits assumed): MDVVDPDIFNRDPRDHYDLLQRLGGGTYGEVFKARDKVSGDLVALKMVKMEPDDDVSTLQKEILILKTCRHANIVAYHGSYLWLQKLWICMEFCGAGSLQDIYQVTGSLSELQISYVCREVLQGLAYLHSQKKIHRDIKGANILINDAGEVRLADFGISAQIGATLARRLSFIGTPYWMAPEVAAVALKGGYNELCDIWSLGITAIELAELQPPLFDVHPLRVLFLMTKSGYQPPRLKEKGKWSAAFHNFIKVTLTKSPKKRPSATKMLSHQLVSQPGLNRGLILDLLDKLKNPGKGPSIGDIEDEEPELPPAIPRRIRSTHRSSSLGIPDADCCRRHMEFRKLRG
For the molecule `CC(C)n1ncc2c(N3C[C@H](N)C4(CC4)C3)c(NC(=O)c3ccc(=O)n(-c4c(F)cccc4F)n3)ccc21` [Example 182, (R)-N-(4-(7-amino-5-azaspiro[2.4]heptan-5-yl)-1-isopropyl-1H-indazol-5-yl)-1-(2,6-difluorophenyl)-6-oxo-1,6-dihydropyridazine-3-carboxamide], the IC50 is under 100 nM.
The figure for `CC(C)n1ncc2c(N3CCC[C@@H](N)C3)c(NC(=O)c3ccc(=O)n(-c4c(F)cccc4F)n3)ccc21` [Example 183, (R)-N-(4-(3-aminopiperidin-1-yl)-1-isopropyl-1H-indazol-5-yl)-1-(2,6-difluorophenyl)-6-oxo-1,6-dihydropyridazine-3-carboxamide] is under 100 nM; for `Cc1cc(NC(=O)c2ccc(=O)n(-c3c(F)cccc3F)n2)c(N2CC[C@@H](N)C2)c2cnn(C(C)C)c12` [Example 185, (R)-N-(4-(3-aminopyrrolidin-1-yl)-1-isopropyl-7-methyl-1H-indazol-5-yl)-1-(2,6-difluorophenyl)-6-oxo-1,6-dihydropyridazine-3-carboxamide] it is under 100 nM; for `CC(C)n1ncc2c(N3C[C@H](N)C(C)(C)C3)c(NC(=O)c3ccc(=O)n(-c4c(F)cccc4F)n3)ccc21` [Example 186, (R)-N-(4-(4-amino-3,3-dimethylpyrrolidin-1-yl)-1-isopropyl-1H-indazol-5-yl)-1-(2,6-difluorophenyl)-6-oxo-1,6-dihydropyridazine-3-carboxamide] it is under 100 nM.
The figure for `CC(C)n1ncc2c(N3C[C@@H](N)C(C)(C)C3)c(NC(=O)c3ccc(=O)n(-c4c(F)cccc4F)n3)ccc21` [Example 187, (S)-N-(4-(4-amino-3,3-dimethylpyrrolidin-1-yl)-1-isopropyl-1H-indazol-5-yl)-1-(2,6-difluorophenyl)-6-oxo-1,6-dihydropyridazine-3-carboxamide] is under 100 nM; for `CC(C)n1ncc2c(N3CC[C@@H](N)C3)c(NC(=O)c3ccc(=O)n(-c4c(F)cccc4F)n3)cc(F)c21` [Example 188, (R)-N-(4-(3-aminopyrrolidin-1-yl)-7-fluoro-1-isopropyl-1H-indazol-5-yl)-1-(2,6-difluorophenyl)-6-oxo-1,6-dihydropyridazine-3-carboxamide] it is under 100 nM; for `CC(C)n1ncc2c(N3C[C@H](N)C4(CC4)C3)c(NC(=O)c3ccc(=O)n(-c4c(F)cccc4F)n3)cc(F)c21` [Example 189, (R)-N-(4-(7-amino-5-azaspiro[2.4]heptan-5-yl)-7-fluoro-1-isopropyl-1H-indazol-5-yl)-1-(2,6-difluorophenyl)-6-oxo-1,6-dihydropyridazine-3-carboxamide] it is under 100 nM.
In the case of `CC(C)n1nc(Cl)c2c(N3CC[C@@H](N)C3)c(NC(=O)c3ccc(=O)n(-c4c(F)cccc4F)n3)cc(F)c21` [Example 190, (R)-N-(4-(3-aminopyrrolidin-1-yl)-3-chloro-7-fluoro-1-isopropyl-1H-indazol-5-yl)-1-(2,6-difluorophenyl)-6-oxo-1,6-dihydropyridazine-3-carboxamide] it was under 100 nM; in that of `CC(C)n1nc(Cl)c2c(N3C[C@@H](C)[C@@H](N)C3)c(NC(=O)c3ccc(=O)n(-c4c(F)cccc4F)n3)ccc21` [Example 191, N-(4-((3R,4R)-3-amino-4-methylpyrrolidin-1-yl)-3-chloro-1-isopropyl-1H-indazol-5-yl)-1-(2,6-difluorophenyl)-6-oxo-1,6-dihydropyridazine-3-carboxamide], under 100 nM; in that of `Cc1nn(C(C)C)c2ccc(NC(=O)c3ccc(=O)n(-c4c(F)cccc4F)n3)c(N3C[C@@H](C)[C@@H](N)C3)c12` [Example 192, N-(4-((3R,4R)-3-amino-4-methylpyrrolidin-1-yl)-1-isopropyl-3-methyl-1H-indazol-5-yl)-1-(2,6-difluorophenyl)-6-oxo-1,6-dihydropyridazine-3-carboxamide], under 100 nM.
Molecule `CC(C)n1ncc2c(N3C[C@@H](C)[C@@H](N)C3)c(NC(=O)c3ccc(=O)n(-c4c(F)cccc4F)n3)cc(F)c21` [Example 193, N-(4-((3R,4R)-3-amino-4-methylpyrrolidin-1-yl)-7-fluoro-1-isopropyl-1H-indazol-5-yl)-1-(2,6-difluorophenyl)-6-oxo-1,6-dihydropyridazine-3-carboxamide] registered an IC50 of under 100 nM.
As for `CC(C)n1ncc2c(N3C[C@@H]4NCCO[C@H]4C3)c(NC(=O)c3ccc(=O)n(-c4c(F)cccc4F)n3)ccc21` [Example 194, 1-(2,6-difluorophenyl)-N-(4-((4aS,7aS)-hexahydropyrrolo[3,4-b][1,4]oxazin-6(2H)-yl)-1-isopropyl-1H-indazol-5-yl)-6-oxo-1,6-dihydropyridazine-3-carboxamide], the 50% inhibitory concentration (IC50) was under 100 nM.
Consider `Cc1nn(C(C)C)c2ccc(NC(=O)c3ccc(=O)n(-c4c(F)cccc4F)n3)c(N3CC[C@@H](N)C3)c12` [Example 195, (R)-N-(4-(3-aminopyrrolidin-1-yl)-1-isopropyl-3-methyl-1H-indazol-5-yl)-1-(2,6-difluorophenyl)-6-oxo-1,6-dihydropyridazine-3-carboxamide], for which the half-maximal inhibitory concentration (IC50) is under 100 nM.
In the case of `CC(C)n1nc(F)c2c(N3C[C@@H](C)[C@@H](N)C3)c(NC(=O)c3ccc(=O)n(-c4c(F)cccc4F)n3)ccc21` [Example 198, N-(4-((3R,4R)-3-amino-4-methylpyrrolidin-1-yl)-3-fluoro-1-isopropyl-1H-indazol-5-yl)-1-(2,6-difluorophenyl)-6-oxo-1,6-dihydropyridazine-3-carboxamide] it was under 100 nM; in that of `CC(C)n1nc(F)c2c(N3C[C@H](N)C4(CC4)C3)c(NC(=O)c3ccc(=O)n(-c4c(F)cccc4F)n3)ccc21` [Example 199, (R)-N-(4-(7-amino-5-azaspiro[2.4]heptan-5-yl)-3-fluoro-1-isopropyl-1H-indazol-5-yl)-1-(2,6-difluorophenyl)-6-oxo-1,6-dihydropyridazine-3-carboxamide], 100 to 1000 nM.
The figure for `CO[C@@H]1CN(c2c(NC(=O)c3ccc(=O)n(-c4c(F)cccc4F)n3)ccc3c2cnn3C(C)C)C[C@H]1N` [Example 201, N-(4-((35,4S)-3-amino-4-methoxypyrrolidin-1-yl)-1-isopropyl-1H-indazol-5-yl)-1-(2,6-difluorophenyl)-6-oxo-1,6-dihydropyridazine-3-carboxamide] is under 100 nM; for `Cc1nn(C(C)C)c2ccc(NC(=O)c3ccc(=O)n(-c4c(F)cccc4F)n3)c(N3C[C@H](N)C4(CC4)C3)c12` [Example 202, (R)-N-(4-(7-amino-5-azaspiro[2.4]heptan-5-yl)-1-isopropyl-3-methyl-1H-indazol-5-yl)-1-(2,6-difluorophenyl)-6-oxo-1,6-dihydropyridazine-3-carboxamide] it is under 100 nM; for `CC[C@H]1CN(c2c(NC(=O)c3ccc(=O)n(-c4c(F)cccc4F)n3)cc(F)c3c2cnn3C(C)C)C[C@H]1N` [Example 203, N-(4-((35,4S)-3-amino-4-ethylpyrrolidin-1-yl)-7-fluoro-1-isopropyl-1H-indazol-5-yl)-1-(2,6-difluorophenyl)-6-oxo-1,6-dihydropyridazine-3-carboxamide] it is under 100 nM.
The figure for `CC(C)n1ncc2c(N3CC[C@@H](CN)C3)c(NC(=O)c3ccc(=O)n(-c4c(F)cccc4F)n3)cc(F)c21` [Example 204, (S)-N-(4-(3-(aminomethyl)pyrrolidin-1-yl)-7-fluoro-1-isopropyl-1H-indazol-5-yl)-1-(2,6-difluorophenyl)-6-oxo-1,6-dihydropyridazine-3-carboxamide] is under 100 nM; for `CO[C@H]1CN(c2c(NC(=O)c3ccc(=O)n(-c4c(F)cccc4F)n3)ccc3c2cnn3C(C)C)C[C@H]1N` [Example 205, N-(4-((3R,4S)-3-amino-4-methoxypyrrolidin-1-yl)-1-isopropyl-1H-indazol-5-yl)-1-(2,6-difluorophenyl)-6-oxo-1,6-dihydropyridazine-3-carboxamide] it is under 100 nM; for `CC(C)n1ncc2c(N3CC(N)C4(COC4)C3)c(NC(=O)c3ccc(=O)n(-c4c(F)cccc4F)n3)ccc21` (stereo not shown) [Example 206, N-(4-(8-amino-2-oxa-6-azaspiro[3.4]octan-6-yl)-1-isopropyl-1H-indazol-5-yl)-1-(2,6-difluorophenyl)-6-oxo-1,6-dihydropyridazine-3-carboxamide] it is under 100 nM.
Regarding `CC(C)n1ncc2c(N3CC[C@H](N)C3)c(NC(=O)c3ccc(=O)n(-c4c(F)cccc4F)n3)ccc21` [Example 207, (S)-N-(4-(3-aminopyrrolidin-1-yl)-1-isopropyl-1H-indazol-5-yl)-1-(2,6-difluorophenyl)-6-oxo-1,6-dihydropyridazine-3-carboxamide], the IC50 was under 100 nM.
In the case of `CC(C)n1ncc2c(N3CC[C@@](C)(N)C3)c(NC(=O)c3ccc(=O)n(-c4c(F)cccc4F)n3)ccc21` [Example 208, (R)-N-(4-(3-amino-3-methylpyrrolidin-1-yl)-1-isopropyl-1H-indazol-5-yl)-1-(2,6-difluorophenyl)-6-oxo-1,6-dihydropyridazine-3-carboxamide], the IC50 is under 100 nM.
In the case of `CC(C)n1ncc2c(N3C[C@H](C)[C@@H](N)C3)c(NC(=O)c3ccc(=O)n(-c4c(F)cccc4F)n3)ccc21` [Example 209, N-(4-((3R,4S)-3-amino-4-methylpyrrolidin-1-yl)-1-isopropyl-1H-indazol-5-yl)-1-(2,6-difluorophenyl)-6-oxo-1,6-dihydropyridazine-3-carboxamide] it was under 100 nM; in that of `CC(C)n1ncc2c(N3C[C@@H]4[C@@H](N)[C@@H]4C3)c(NC(=O)c3ccc(=O)n(-c4c(F)cccc4F)n3)ccc21` [Example 211, N-(4-((1R,5S,6s)-6-amino-3-azabicyclo[3.1.0]hexan-3-yl)-1-isopropyl-1H-indazol-5-yl)-1-(2,6-difluorophenyl)-6-oxo-1,6-dihydropyridazine-3-carboxamide], under 100 nM.

Values taken from US20250122174A1 (Shenzhen Yuanli Shenwan Innovative Medicine Co., Ltd., priority 2022, published 2025).
